Experimental data reported in the NIST ThermoML archive (doi:10.1016/j.tca.2008.05.002).
Numbers after ± are expanded uncertainties.

Assay: molar heat capacity at saturation pressure
Settings: Small (less than 1 g) adiabatic calorimetry

CCCCn1cc[n+](C)c1.O=[N+]([O-])[O-] [1-butyl-3-methylimidazolium nitrate]
molar heat capacity (289.01 K, Liquid): 350.73 ± 1.6 J/K/mol | molar heat capacity (289.03 K, Crystal 2): 359.38 ± 1.8 J/K/mol | molar heat capacity (289.45 K, Crystal 2): 366.43 ± 1.6 J/K/mol | molar heat capacity (289.95 K, Crystal 2): 362.2 ± 1.6 J/K/mol | molar heat capacity (290.42 K, Crystal 2): 367.43 ± 1.6 J/K/mol | molar heat capacity (290.84 K, Crystal 2): 370.25 ± 2 J/K/mol | molar heat capacity (291.41 K, Liquid): 351.54 ± 1.6 J/K/mol | molar heat capacity (291.75 K, Crystal 2): 425.39 ± 2 J/K/mol | molar heat capacity (291.98 K, Crystal 2): 378.5 ± 1.8 J/K/mol | molar heat capacity (292.18 K, Crystal 2): 416.33 ± 4.2 J/K/mol | molar heat capacity (293 K, Crystal 1): 432.03 ± 2.8 J/K/mol | molar heat capacity (293.5 K, Crystal 1): 380.51 ± 2 J/K/mol | molar heat capacity (293.81 K, Liquid): 352.34 ± 1.6 J/K/mol | molar heat capacity (293.98 K, Crystal 1): 378.1 ± 1.8 J/K/mol | molar heat capacity (294.33 K, Crystal 1): 377.9 ± 1.8 J/K/mol | molar heat capacity (294.87 K, Crystal 1): 383.53 ± 1.8 J/K/mol | molar heat capacity (295.97 K, Crystal 1): 397.01 ± 1.8 J/K/mol | molar heat capacity (296.14 K, Crystal 1): 399.03 ± 1.8 J/K/mol | molar heat capacity (296.21 K, Liquid): 353.15 ± 1.6 J/K/mol | molar heat capacity (296.66 K, Crystal 1): 410.29 ± 1.8 J/K/mol | molar heat capacity (297.89 K, Crystal 1): 432.63 ± 2 J/K/mol | molar heat capacity (298.32 K, Crystal 1): 442.09 ± 2 J/K/mol | molar heat capacity (298.61 K, Liquid): 353.95 ± 1.6 J/K/mol | molar heat capacity (298.79 K, Crystal 1): 458.19 ± 2.2 J/K/mol | molar heat capacity (299.7 K, Crystal 1): 486.36 ± 2.2 J/K/mol | molar heat capacity (300.51 K, Crystal 1): 519.76 ± 2.4 J/K/mol | molar heat capacity (300.77 K, Crystal 1): 538.67 ± 2.6 J/K/mol | molar heat capacity (301.01 K, Liquid): 354.76 ± 1.6 J/K/mol | molar heat capacity (301.36 K, Crystal 1): 572.08 ± 2.8 J/K/mol | molar heat capacity (302.38 K, Crystal 1): 652.97 ± 4.2 J/K/mol | molar heat capacity (302.52 K, Crystal 1): 675.3 ± 3.8 J/K/mol | molar heat capacity (302.83 K, Crystal 1): 708.51 ± 4.2 J/K/mol | molar heat capacity (303.42 K, Liquid): 355.76 ± 1.6 J/K/mol | molar heat capacity (303.87 K, Crystal 1): 876.13 ± 7 J/K/mol | molar heat capacity (303.98 K, Crystal 1): 909.13 ± 6.2 J/K/mol | molar heat capacity (304.08 K, Crystal 1): 926.83 ± 5.2 J/K/mol | molar heat capacity (305.82 K, Liquid): 356.57 ± 1.6 J/K/mol | molar heat capacity (308.22 K, Liquid): 357.37 ± 1.6 J/K/mol | molar heat capacity (310.14 K, Liquid): 358.38 ± 1.6 J/K/mol | molar heat capacity (310.4 K, Liquid): 358.58 ± 1.6 J/K/mol | molar heat capacity (310.62 K, Liquid): 358.38 ± 1.6 J/K/mol | molar heat capacity (311.19 K, Liquid): 358.58 ± 1.6 J/K/mol | molar heat capacity (312.54 K, Liquid): 359.18 ± 1.6 J/K/mol | molar heat capacity (313.02 K, Liquid): 358.98 ± 1.6 J/K/mol | molar heat capacity (313.34 K, Liquid): 359.18 ± 1.6 J/K/mol | molar heat capacity (314.75 K, Liquid): 359.99 ± 1.6 J/K/mol | molar heat capacity (315.42 K, Liquid): 360.19 ± 1.6 J/K/mol | molar heat capacity (315.54 K, Liquid): 359.99 ± 1.6 J/K/mol | molar heat capacity (316.76 K, Liquid): 360.59 ± 1.6 J/K/mol | molar heat capacity (317.74 K, Liquid): 360.99 ± 1.6 J/K/mol | molar heat capacity (317.82 K, Liquid): 360.99 ± 1.6 J/K/mol | molar heat capacity (318.76 K, Liquid): 361.6 ± 1.6 J/K/mol | molar heat capacity (319.94 K, Liquid): 361.8 ± 1.6 J/K/mol | molar heat capacity (320.21 K, Liquid): 362 ± 1.6 J/K/mol | molar heat capacity (320.76 K, Liquid): 362.4 ± 1.6 J/K/mol | molar heat capacity (322.14 K, Liquid): 362.81 ± 1.6 J/K/mol | molar heat capacity (322.61 K, Liquid): 363.01 ± 1.6 J/K/mol | molar heat capacity (322.77 K, Liquid): 363.41 ± 1.6 J/K/mol | molar heat capacity (324.34 K, Liquid): 363.61 ± 1.6 J/K/mol | molar heat capacity (324.77 K, Liquid): 364.01 ± 1.6 J/K/mol | molar heat capacity (325.01 K, Liquid): 363.81 ± 1.6 J/K/mol | molar heat capacity (326.54 K, Liquid): 364.62 ± 1.6 J/K/mol | molar heat capacity (326.77 K, Liquid): 364.62 ± 1.6 J/K/mol | molar heat capacity (327.41 K, Liquid): 365.02 ± 1.6 J/K/mol | molar heat capacity (328.73 K, Liquid): 365.22 ± 1.6 J/K/mol | molar heat capacity (328.78 K, Liquid): 365.42 ± 1.6 J/K/mol | molar heat capacity (329.81 K, Liquid): 365.82 ± 1.6 J/K/mol | molar heat capacity (330.78 K, Liquid): 366.43 ± 1.6 J/K/mol | molar heat capacity (330.93 K, Liquid): 366.23 ± 1.6 J/K/mol | molar heat capacity (332.2 K, Liquid): 366.83 ± 1.6 J/K/mol | molar heat capacity (332.78 K, Liquid): 367.23 ± 1.6 J/K/mol | molar heat capacity (333.12 K, Liquid): 367.03 ± 1.6 J/K/mol | molar heat capacity (334.6 K, Liquid): 367.84 ± 1.6 J/K/mol | molar heat capacity (334.78 K, Liquid): 368.24 ± 1.6 J/K/mol | molar heat capacity (335.32 K, Liquid): 367.84 ± 1.6 J/K/mol | molar heat capacity (336.78 K, Liquid): 368.84 ± 1.6 J/K/mol | molar heat capacity (336.99 K, Liquid): 368.64 ± 1.6 J/K/mol | molar heat capacity (337.51 K, Liquid): 369.04 ± 1.6 J/K/mol | molar heat capacity (338.78 K, Liquid): 369.65 ± 1.6 J/K/mol | molar heat capacity (339.71 K, Liquid): 369.65 ± 1.6 J/K/mol | molar heat capacity (340.78 K, Liquid): 370.45 ± 1.6 J/K/mol | molar heat capacity (341.9 K, Liquid): 370.45 ± 1.6 J/K/mol | molar heat capacity (342.78 K, Liquid): 371.46 ± 1.6 J/K/mol | molar heat capacity (344.09 K, Liquid): 371.46 ± 1.6 J/K/mol | molar heat capacity (344.78 K, Liquid): 372.26 ± 1.6 J/K/mol | molar heat capacity (346.29 K, Liquid): 372.46 ± 1.6 J/K/mol | molar heat capacity (346.78 K, Liquid): 373.27 ± 1.6 J/K/mol | molar heat capacity (348.48 K, Liquid): 373.47 ± 1.6 J/K/mol | molar heat capacity (348.78 K, Liquid): 374.07 ± 1.6 J/K/mol | molar heat capacity (350.68 K, Liquid): 374.28 ± 1.6 J/K/mol | molar heat capacity (350.78 K, Liquid): 374.88 ± 1.6 J/K/mol | molar heat capacity (352.78 K, Liquid): 375.68 ± 1.6 J/K/mol | molar heat capacity (352.87 K, Liquid): 375.48 ± 1.6 J/K/mol | molar heat capacity (354.78 K, Liquid): 376.69 ± 1.8 J/K/mol | molar heat capacity (355.06 K, Liquid): 376.29 ± 1.6 J/K/mol | molar heat capacity (356.78 K, Liquid): 377.7 ± 1.8 J/K/mol | molar heat capacity (357.25 K, Liquid): 377.49 ± 1.8 J/K/mol | molar heat capacity (358.78 K, Liquid): 378.3 ± 1.8 J/K/mol | molar heat capacity (359.44 K, Liquid): 378.3 ± 1.8 J/K/mol | molar heat capacity (360.77 K, Liquid): 379.31 ± 1.8 J/K/mol | molar heat capacity (361.63 K, Liquid): 379.31 ± 1.8 J/K/mol | molar heat capacity (363.82 K, Liquid): 380.11 ± 1.8 J/K/mol | molar heat capacity (366.01 K, Liquid): 381.12 ± 1.8 J/K/mol | molar heat capacity (368.19 K, Liquid): 382.32 ± 1.8 J/K/mol
